Measurements reported in the supplement of paper PMC10702517.
± gives the standard deviation.

test: chemical recovery from spiked human plasma; higher = better extraction; details: pooled human plasma; extraction method: SPE only (HLB 96-well), PES comparison experiment

Row | SMILES | chemical recovery
1 | CCNc1nc(NC(C)(C)C)nc(SC)n1 [Terbutryn] | 48.2 ± 6.7%
2 | CCOC(=O)C1=C(C)NC(C)=C(C(=O)OC)C1c1cccc([N+](=O)[O-])c1 (configuration not stated) [Nitrendipin] | 51.5 ± 5.5%
3 | COCC(=O)N(c1c(C)cccc1C)C(C)C(=O)OC (configuration not stated) [Metalaxyl] | 50.3 ± 7.6%
4 | O=P(c1ccccc1)(c1ccccc1)c1ccccc1 [Triphenylphosphine oxide] | 51.6 ± 7.2%
5 | C=CCOC(Cn1ccnc1)c1ccc(Cl)cc1Cl (configuration not stated) [Imazalil] | 47.6 ± 5.3%
6 | O=C(Nc1ccccc1-c1ccc(Cl)cc1)c1cccnc1Cl [Boscalid] | 48.2 ± 7.4%
7 | Clc1ccc(Cl)c(-c2cc(Cl)c(Cl)cc2Cl)c1 [PCB101] | 14 ± 2.6%
8 | C[C@H]1C[C@H]2[C@@H]3CCC4=CC(=O)C=C[C@]4(C)[C@@]3(F)[C@@H](O)C[C@]2(C)[C@@]1(O)C(=O)CCl [Clobetasol] | 49 ± 7.5%
9 | CC(CCl)OP(=O)(OC(C)CCl)OC(C)CCl (configuration not stated) [Tris(1-chloro-2-propyl)phosphate] | 55 ± 8.9%
10 | Cc1cc(C2CC2)nc(Nc2ccccc2)n1 [Cyprodinil] | 38.5 ± 5.9%
11 | CC1CCc2cc(F)cc3c(=O)c(C(=O)O)cn1c23 (configuration not stated) [Flumequine] | 49.8 ± 7.5%
12 | CCCCC(C#N)(Cn1cncn1)c1ccc(Cl)cc1 (configuration not stated) [Myclobutanil] | 48.5 ± 8.4%
13 | CCCCc1c(C)nc(NCC)nc1OS(=O)(=O)N(C)C [Bupirimate] | 48.9 ± 8.9%
14 | CC(=O)CCCCn1c(=O)c2c(ncn2C)n(C)c1=O [Pentoxifylline] | 52.1 ± 4.9%
15 | COCC(C)N(C(=O)CCl)c1c(C)csc1C (configuration not stated) [Dimethenamid] | 46.6 ± 8.4%
16 | Cc1cc(=O)oc2cc(N)ccc12 [7-Amino-4-methylcoumarin] | 53.5 ± 9.9%

Row | SMILES | chemical recovery
17 | COCCN(C(=O)CCl)c1c(C)cccc1C [Dimethachlor] | 47.8 ± 7.7%
18 | Oc1ccc(Cl)cc1Cc1ccccc1 [Chlorophene] | 48.5 ± 7.9%
19 | COC[P+](c1ccccc1)(c1ccccc1)c1ccccc1 [(Methoxymethyl)triphenylphosphonium] | 48.7 ± 4.5%
20 | Cc1cccc(C)c1N(Cn1cccn1)C(=O)C(=O)O [Metazachlor OA] | 50.4 ± 3.9%
21 | CC(=O)c1cc2c(cc1C)C(C)(C)C(C)CC2(C)C (configuration not stated) [Tonalide] | 22.3 ± 6.1%
22 | Cc1cc(Cc2ccc(N)c(C)c2)ccc1N [4,4'-Methylene-bis(2-methyl aniline)] | 24.5 ± 4%
23 | C[C@]12CCC(=O)C=C1[C@@H]1C[C@@H]1[C@H]1[C@@H]3[C@@H]4C[C@@H]4[C@@]4(CCC(=O)O4)[C@@]3(C)CC[C@@H]12 [Drospirenone] | 42.6 ± 8.3%
24 | c1ccc(/N=N/c2ccccc2)cc1 [Azobenzene] | 8.55 ± 2.6%
25 | CO/C=C(/C(=O)O)c1ccccc1Oc1cc(Oc2ccccc2C#N)ncn1 [Azoxystrobin acid] | 51.7 ± 3.9%
26 | Nc1ccc(-c2ccc(N)c(Cl)c2)cc1Cl [3,3'-Dichlorobenzidine] | 24.4 ± 3.6%
27 | Clc1cc(Cl)c(-c2cc(Cl)c(Cl)cc2Cl)cc1Cl [PCB153] | 10.3 ± 2.5%
28 | C#C[C@]1(O)C=C[C@H]2[C@@H]3CCC4=CC(=O)CC[C@@H]4[C@H]3CC[C@@]21CC [Gestoden] | 47 ± 7.4%
29 | c1ccc2c(c1)[nH]c1cnccc12 [Norharmane] | 48 ± 6.7%
30 | Cc1c(C(C)C)c(=O)n(-c2ccccc2)n1C [Propyphenazone] | 47.3 ± 6.5%
31 | Clc1cc(Cl)c(-c2c(Cl)ccc(Cl)c2Cl)cc1Cl [PCB149] | 10.4 ± 2%
32 | CCCOP(=O)(OCCC)OCCC [Tripropyl phosphate] | 26.4 ± 7.2%

same assay, conditions: pooled human plasma; extraction method: solvent precipitation (ACN + hexane)

Row | SMILES | chemical recovery
33 | CCCCc1oc2ccccc2c1C(=O)c1cc(I)c(OCCN(CC)CC)c(I)c1 [Amiodarone] | 106 ± 22%
34 | CN(C)C(=O)Nc1ccc(Cl)c(Cl)c1 [Diuron] | 74.6 ± 2.9%
35 | O=C(O)c1ccc(Cl)cc1Cl [2,4-Dichlorobenzoic acid] | 67 ± 4.5%
36 | Oc1ccc(Cl)cc1Cc1cc(Cl)ccc1O [Dichlorophen] | 45.7 ± 2.1%
37 | CO/C=C(/C(=O)OC)c1ccccc1COc1cccc(C(F)(F)F)n1 [Picoxystrobin] | 63.7 ± 4.3%
38 | CNC1=C(c2cccc(C(F)(F)F)c2)C(=O)C(c2ccccc2)O1 (configuration not stated) [Flurtamone] | 80.8 ± 2.4%
39 | c1ccc2sc(NC3CCCCC3)nc2c1 [N-Cyclohexyl-2-benzothiazole-amine] | 74.8 ± 3.3%
40 | C/C(=N\C#N)N(C)Cc1ccc(Cl)nc1 [Acetamiprid] | 75 ± 2.6%
41 | Cc1ccc(NC(=O)N(C)C)cc1Cl [Chlorotoluron] | 74.4 ± 2.2%
42 | CCNc1nc(NC(C)(C)C)nc(SC)n1 [Terbutryn] | 68.8 ± 3.2%
43 | CCOC(=O)C1=C(C)NC(C)=C(C(=O)OC)C1c1cccc([N+](=O)[O-])c1 (configuration not stated) [Nitrendipin] | 52.1 ± 2.9%
44 | COCC(=O)N(c1c(C)cccc1C)C(C)C(=O)OC (configuration not stated) [Metalaxyl] | 70.2 ± 2.1%
45 | C=CCOC(Cn1ccnc1)c1ccc(Cl)cc1Cl (configuration not stated) [Imazalil] | 75 ± 4.8%
46 | O=C(Nc1ccccc1-c1ccc(Cl)cc1)c1cccnc1Cl [Boscalid] | 81.6 ± 1.8%
47 | Clc1ccc(Cl)c(-c2cc(Cl)c(Cl)cc2Cl)c1 [PCB101] | 91.2 ± 10%
48 | Clc1ccc2c(c1)CCc1cccnc1C2=C1CCNCC1 [Desloratadine] | 59.9 ± 1.8%
49 | Cc1cc(C2CC2)nc(Nc2ccccc2)n1 [Cyprodinil] | 69.9 ± 3.2%
50 | CC1CCc2cc(F)cc3c(=O)c(C(=O)O)cn1c23 (configuration not stated) [Flumequine] | 72.1 ± 3.2%
51 | CCCCC(C#N)(Cn1cncn1)c1ccc(Cl)cc1 (configuration not stated) [Myclobutanil] | 79.3 ± 2.2%
52 | CC(=O)CCCCn1c(=O)c2c(ncn2C)n(C)c1=O [Pentoxifylline] | 76.5 ± 3.2%
